# Laboratory results as given in US20110144160A1, “Antagonists of Prostaglandin D2 Receptors” (Amira Pharmaceuticals, Inc., priority 2008, published 2011).
# pIC50: −log10 of the molar value.
# Molecular target: T1, human DP2 receptor (Homo sapiens, UniProt Q9Y5Y4)
# T1 construct: expressed in transfected cells
# T1 sequence (Q9Y5Y4 1-395): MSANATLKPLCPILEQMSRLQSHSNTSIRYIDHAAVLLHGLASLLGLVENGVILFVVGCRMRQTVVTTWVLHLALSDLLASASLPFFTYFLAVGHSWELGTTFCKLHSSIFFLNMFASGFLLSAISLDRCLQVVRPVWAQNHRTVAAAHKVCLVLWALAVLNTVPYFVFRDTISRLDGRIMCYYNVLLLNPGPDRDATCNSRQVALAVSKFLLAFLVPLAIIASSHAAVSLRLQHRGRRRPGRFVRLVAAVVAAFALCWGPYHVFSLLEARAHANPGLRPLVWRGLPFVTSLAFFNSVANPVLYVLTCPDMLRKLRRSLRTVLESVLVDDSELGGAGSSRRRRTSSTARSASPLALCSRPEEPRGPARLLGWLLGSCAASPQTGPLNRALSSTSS
# Assay: DP2/CRTH2 binding assay ([3H]PGD2 radioligand)
# Details: membranes of HEK293 cells expressing recombinant human DP2, 1 nM [3H]PGD2; read-out: hDP2
# Description: The ability of a compound to bind to the human DP2 receptor is assessed via a radioligand binding assay using [^3H]PGD2. HEK293 cells stably expressing recombinant human DP2 are resuspended in 10 mM Hepes, 7.4 containing 1 mM DTT, lysed and centrifuged at 75,000×g to pellet the membranes. The membranes are resuspended in 10 mM Hepes, 7.4 containing 1 mM DTT and 10% glycerol to approximately 5 mg protein/ml. Membranes (2-10 μg protein/well) are incubated in 96-well plates with 1 nM [^3H]PGD2 and test compound in Assay Buffer (50 mM Hepes, 10 mM MnCl2, 1 mM EDTA, plus or minus 0.2% human serum albumin, pH 7.4) for 60 minutes at room temperature. The reactions are terminated by rapid filtration through Whatman GF/C glass fibre filter plates. The filter plates were pre-soaked in 0.33% polythylenimine for 30 minutes at room temperature then washed in Wash Buffer (50 mM Hepes, 0.5 M NaCl pH 7.4) prior to harvesting. After harvesting, the filter plates are washed 3 times with 1 ml cold Wash Buffer then dried. Scintillant is then added to the plates and the radioactivity retained on the filters is determined on a Packard TopCount (Perkin Elmer). Specific binding is determined as total radioactive binding minus non-specific binding in the presence of 10 μM PGD2. IC50s were determined using GraphPad prism analysis of drug titration curves.
row,SMILES,pIC50
1,"CC(C)SCc1cc(NC(=O)C(C)(C)C)ccc1Oc1cc(Cl)cc(CC(=O)O)c1 [Compound 30, {3-Chloro-5-[4-(2,2-dimethyl-propionylamino)-2-isopropylsulfanylmethyl-phenoxy]-phenyl}-acetic acid]",> 6.52
2,"COc1ccc(CC(=O)O)cc1Oc1ccc(NC(=O)C(C)(C)C)cc1C[S+]([O-])C(C)(C)C (centres unmarked) [Compound 73, {3-[4-(2,2-Dimethyl-propionylamino)-2-(2-methyl-propane-2-sulfinylmethyl)-phenoxy]-4-methoxy-phenyl}-acetic acid]",> 6.52
3,"CC(C)(C)C(=O)Nc1ccc(Oc2cc(CC(=O)O)ccc2O)c(C[S+]([O-])C(C)(C)C)c1 (centres unmarked) [Compound 76, {3-[4-(2,2-Dimethyl-propionylamino)-2-(2-methyl-propane-2-sulfinylmethyl)-phenoxy]-4-hydroxy-phenyl}-acetic acid]",> 6.52
4,"COc1ccc(CC(=O)O)cc1Oc1ccc(C(=O)NCc2ccc(Cl)cc2)cc1CSC(C)C [Compound 26, {3-[4-(4-Chloro-benzylcarbamoyl)-2-isopropylsulfanylmethyl-phenoxy]-4-methoxy-phenyl}-acetic acid]",> 6.52
5,"COc1ccc(CC(=O)O)cc1Oc1ccc(NC(=O)C2CC2)cc1CSCC(F)(F)F [Compound 14, {3-[4-(Cyclopropanecarbonyl-amino)-2-(2,2,2-trifluoro-ethylsulfanylmethyl)-phenoxy]-4-methoxy-phenyl}-acetic acid]",> 6.52
6,"COc1ccc(CC(=O)O)cc1Oc1ccc(NC(=O)C(C)C)cc1CSC(C)(C)C [Compound 36, [3-(2-tert-Butylsulfanylmethyl-4-isobutyrylamino-phenoxy)-4-methoxy-phenyl]-acetic acid]",> 6.52
7,"COc1ccc(CC(=O)O)cc1Oc1ccc(NC(=O)c2ccc(Cl)cc2)cc1CS(=O)(=O)C(C)C [Compound 22, {3-[4-(4-Chloro-benzoylamino)-2-(propane-2-sulfonylmethyl)-phenoxy]-4-methoxy-phenyl}-acetic acid]",> 6.52
8,"COc1ccc(CC(=O)O)cc1Oc1ccc(NC(=O)C(C)(C)C)cc1C[S+]([O-])C(C)C (centres unmarked) [Compound 11, {3-[4-(2,2-Dimethyl-propionylamino)-2-(propane-2-sulfinylmethyl)-phenoxy]-4-methoxy-phenyl}-acetic acid]",> 6.52
9,"COc1ccc(CC(=O)O)cc1Oc1ccc(NC(=O)NCc2ccccc2)cc1CSC(C)(C)C [Compound 13, {3-[4-(3-benzyl-ureido)-2-tert-butylsulfanylmethyl-phenoxy]-4-methoxy-phenyl}-acetic acid]",> 6.52
10,"CC(C)(C)C(=O)Nc1ccc(Oc2cc(CC(=O)O)cc(C(F)(F)F)c2)c(CS(=O)(=O)CC(F)(F)F)c1 [Compound 33, {3-[4-(2,2-Dimethyl-propionylamino)-2-(trifluoro-ethanesulfonylmethyl)-phenoxy]-5-trifluoromethyl-phenyl}-acetic acid]",> 6.52
11,"COc1ccc(CC(=O)O)cc1Oc1ccc(NC(=O)c2ccc(Cl)cc2)cc1CSc1ccc(Cl)cc1 [Compound 4, {3-[4-(4-Chloro-benzoylamino)-2-(4-chloro-phenylsulfanylmethyl)-phenoxy]-4-methoxy-phenyl}-acetic acid]",> 6.52
12,"COc1ccc(CC(=O)O)cc1Oc1ccc(C(=O)N(C)C(C)C)cc1CSC(C)(C)C [Compound 45, {3-[2-tert-butylsulfanylmethyl-4-(isopropyl-methyl-carbamoyl)-phenoxy]-4-methoxy-phenyl}-acetic acid]",< 6.00
13,"C=Cc1ccc(CC(=O)O)cc1Oc1ccc(NC(=O)C(C)(C)C)cc1CSCC(F)(F)F [Compound 55, {3-[4-(2,2-Dimethyl-propionylamino)-2-(2,2,2-trifluoro-ethylsulfanylmethyl)-phenoxy]-4-vinyl-phenyl}-acetic acid]",> 6.52
14,"COc1ccc(CC(=O)O)cc1Oc1ccc(NC(=O)c2ccc(Cl)cc2)cc1CSC(C)C [Compound 20, {3-[4-(4-Chloro-benzoylamino)-2-isopropylsulfanylmethyl-phenoxy]-4-methoxy-phenyl}-acetic acid]",> 6.52
15,"COc1ccc(CC(=O)O)cc1Oc1ccc(NC(=O)c2ccc(Cl)cc2)cc1CS(=O)(=O)c1ccccc1 [Compound 24, {3-[2-Benzenesulfonylmethyl-4-(4-chloro-benzoylamino)-phenoxy]-4-methoxy-phenyl}-acetic acid]",> 6.52
16,"CC(C)(C)C(=O)Nc1ccc(Oc2cc(Cl)cc(CC(=O)O)c2)c(CS(=O)(=O)C(C)(C)C)c1 [Compound 48, {3-Chloro-5-[4-(2,2-dimethyl-propionylamino)-2-(2-methyl-propane-2-sulfonylmethyl)-phenoxy]-phenyl}-acetic acid]",> 6.52
17,"CC(C)S(=O)(=O)Cc1cc(NC(=O)C(C)(C)C)ccc1Oc1cc(Cl)cc(CC(=O)O)c1 [Compound 31, {3-Chloro-5-[4-(2,2-dimethyl-propionylamino)-2-(propane-2-sulfonylmethyl)-phenoxy]-phenyl}-acetic acid]",> 6.52
18,"COc1ccc(CC(=O)O)cc1Oc1ccc(NC(=O)C(C)(C)C)cc1CS(=O)(=O)CC(F)(F)F [Compound 12, {3-[4-(2,2-Dimethyl-propionylamino)-2-(trifluoro-ethanesulfonylmethyl)-phenoxy]-4-methoxy-phenyl}-acetic acid]",> 6.52
19,"CC(C)(C)C(=O)Nc1ccc(Oc2cc(Cl)cc(CC(=O)O)c2)c(CSCC(F)(F)F)c1 [Compound 28, {3-Chloro-5-[4-(2,2-dimethyl-propionylamino)-2-(2,2,2-trifluoro-ethylsulfanylmethyl)-phenoxy]-phenyl}-acetic acid]",> 6.52
20,"COc1ccc(CC(=O)O)cc1Oc1ccc(NC(=O)NCc2ccccc2)cc1CSCC(F)(F)F [Compound 3, {3-[4-(3-benzyl-ureido)-2-(2,2,2-trifluoro-ethylsulfanylmethyl)-phenoxy]-4-methoxy-phenyl}-acetic acid]",> 6.52
21,"COc1ccc(CC(=O)O)cc1Oc1ccc(NC(=O)c2ccc(Cl)cc2)cc1CSC(C)(C)C [Compound 8, {3-[2-tert-butylsulfanylmethyl-4-(4-chloro-benzoylamino)-phenoxy]-4-methoxy-phenyl}-acetic acid]",> 6.52
22,"COc1ccc(CC(=O)O)cc1Oc1ccc(NC(=O)c2ccc(Cl)cc2)cc1C[S+]([O-])C(C)C (centres unmarked) [Compound 21, {3-[4-(4-Chloro-benzoylamino)-2-(propane-2-sulfinylmethyl)-phenoxy]-4-methoxy-phenyl}-acetic acid]",> 6.52
23,"COc1ccc(CC(=O)O)cc1Oc1ccc(NC(=O)c2ccc(Cl)cc2)cc1C[S+]([O-])c1ccccc1 (centres unmarked) [Compound 23, {3-[2-Benzenesulfinylmethyl-4-(4-chloro-benzoylamino)-phenoxy]-4-methoxy-phenyl}-acetic acid]",> 6.52

# Molecular target: T2, human DP1 receptor (Homo sapiens, UniProt Q13258)
# T2 construct: tissue Biological Specialty Corporation; host or cells: human platelets, membrane preparation
# T2 sequence (Q13258 1-359): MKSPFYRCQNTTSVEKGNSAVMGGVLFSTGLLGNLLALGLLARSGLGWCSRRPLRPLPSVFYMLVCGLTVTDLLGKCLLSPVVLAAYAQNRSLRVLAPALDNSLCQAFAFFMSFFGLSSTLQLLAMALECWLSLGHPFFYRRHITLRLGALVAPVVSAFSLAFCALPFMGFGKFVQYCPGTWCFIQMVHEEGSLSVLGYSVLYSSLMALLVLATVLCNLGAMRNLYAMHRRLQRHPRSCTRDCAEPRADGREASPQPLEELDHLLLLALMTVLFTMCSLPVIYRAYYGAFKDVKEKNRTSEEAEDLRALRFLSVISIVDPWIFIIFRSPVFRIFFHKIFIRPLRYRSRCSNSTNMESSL
# Assay: DP1 binding assay ([3H]BWA868C radioligand)
# Details: human platelet membranes, 2 nM [3H]BWA868C; read-out: hDP1
# Description: The ability of a compound to bind to the human DP1 receptor was evaluated via a radioligand membrane binding assay using the DP1 selective synthetic ligand [^3H]BWA868C. Packed human platelets (Biological Specialty Corporation), were resuspended in 6 volumes of Hepes/HBSS buffer (10 mM Hepes, 1 mM DTT in Hanks Balanced Salt Solution (HBSS), lysed and centrifuged at 75,000×g to pellet the membranes. Membranes were resuspended in Hepes/HBSS buffer to approximately 12 mg protein/ml. Membranes (20 μg protein/well) are incubated in 96-well plates with 2 nM [^3H]BWA868C and test compound in Assay Buffer (50 mM Hepes, 10 mM MnCl2, 1 mM EDTA, plus or minus 0.2% human serum albumin, pH 7.4) for 60 minutes at room temperature. The reactions are terminated by rapid filtration through Whatman GF/C glass fibre filter plates. The filter plates were pre-soaked in 0.33% polethylenimine for 30 minutes at room temperature then washed in Wash Buffer (50 mM Hepes, 0.5 M NaCl pH 7.4) prior to harvesting. After harvesting, the filter plates are washed 3 times with 1 ml cold Wash Buffer then dried. Scintillant is then added to the plates and the radioactivity retained on the filters is determined on a Packard TopCount (Perkin Elmer). Specific binding is determined as total radioactive binding minus non-specific binding in the presence of 10 μM BW A868C. IC50s were determined using GraphPad prism analysis of drug titration curves.
row,SMILES,pIC50
1,"CC(C)SCc1cc(NC(=O)C(C)(C)C)ccc1Oc1cc(Cl)cc(CC(=O)O)c1 [Compound 30, {3-Chloro-5-[4-(2,2-dimethyl-propionylamino)-2-isopropylsulfanylmethyl-phenoxy]-phenyl}-acetic acid]",< 6.00
2,"COc1ccc(CC(=O)O)cc1Oc1ccc(NC(=O)C(C)(C)C)cc1C[S+]([O-])C(C)(C)C (centres unmarked) [Compound 73, {3-[4-(2,2-Dimethyl-propionylamino)-2-(2-methyl-propane-2-sulfinylmethyl)-phenoxy]-4-methoxy-phenyl}-acetic acid]",> 6.52
3,"CC(C)(C)C(=O)Nc1ccc(Oc2cc(CC(=O)O)ccc2O)c(C[S+]([O-])C(C)(C)C)c1 (centres unmarked) [Compound 76, {3-[4-(2,2-Dimethyl-propionylamino)-2-(2-methyl-propane-2-sulfinylmethyl)-phenoxy]-4-hydroxy-phenyl}-acetic acid]",> 6.52
